Results from ChEMBL document CHEMBL1141287, “Cardenolides from Saussurea stella with cytotoxicity toward cancer cells” (J Nat Prod, 2007).

What was measured:
[1] = Cytotoxicity against human BCG823 cells after 48 hrs by sulforhodamine B assay; format: functional, cell-based; details: BCG823, 48 h
Bel-7402 = assay: Cytotoxicity against human Bel7402 cells after 48 hrs by sulforhodamine B assay; format: functional, cell-based; details: Bel-7402, 48 h

Compound | IC50 [1] | IC50 (Bel-7402)
C[C@]12CC[C@H]3[C@@H](CC[C@]4(O)C[C@@H](O[C@@H]5OC[C@@H](O)[C@H](O)[C@H]5O)CC[C@]34C=O)[C@@]1(O)CC[C@@H]2C1=CC(=O)OC1 | 16 nM | 130 nM
C[C@]12CC[C@H](O[C@@H]3OC[C@@H](O)[C@H](O)[C@H]3O)C[C@@]1(O)CC[C@@H]1[C@@H]2CC[C@]2(C)[C@@H](C3=CC(=O)OC3)CC[C@]12O | 230 nM | 480 nM
C[C@H]1O[C@@H](O[C@H]2CC[C@]3(C=O)[C@H]4CC[C@]5(C)[C@@H](C6=CC(=O)OC6)CC[C@]5(O)[C@@H]4CC[C@]3(O)C2)[C@H](O)[C@@H](O)[C@@H]1O | 100 nM | 20 nM
C[C@@H]1O[C@@H](O[C@H]2CC[C@@]3(C=O)[C@H](CC[C@@H]4[C@@H]3CC[C@]3(C)[C@@H](C5=CC(=O)OC5)CC[C@]43O)C2)[C@H](O)[C@H](O)[C@H]1O[C@@H]1O[C@H](CO)[C@@H](O)[C@H](O)[C@H]1O | 290 nM | 870 nM
C[C@H]1O[C@@H](O[C@H]2CC[C@]3(C)[C@H]4CC[C@]5(C)[C@@H](C6=CC(=O)OC6)CC[C@]5(O)[C@@H]4CC[C@]3(O)C2)[C@H](O)[C@@H](O)[C@@H]1O | 70 nM | 310 nM
C[C@H]1O[C@@H](O[C@H]2CC[C@]3(C)[C@H]4CC[C@]5(C)[C@@H](C6=CC(=O)OC6)CC[C@]5(O)[C@@H]4CC[C@]3(O)C2)[C@H](O)[C@@H](O)[C@H]1O | 120 nM | 400 nM
C[C@@H]1O[C@@H](O[C@H]2CC[C@@]3(CO)[C@H](CC[C@@H]4[C@@H]3CC[C@]3(C)[C@@H](C5=CC(=O)OC5)CC[C@]43O)C2)[C@H](O)[C@H](O)[C@H]1O | 77 nM | 28 nM
C[C@@H]1O[C@@H](O[C@@H]2C[C@H]3CC[C@@H]4[C@H](CC[C@]5(C)[C@@H](C6=CC(=O)OC6)CC[C@]45O)[C@@]3(C)[C@H](O)C2)[C@H](O)[C@H](O)[C@H]1O | 56 nM | 240 nM
C[C@@H]1O[C@@H](O[C@H]2CC[C@]3(C=O)[C@H]4CC[C@]5(C)[C@@H](C6=CC(=O)OC6)CC[C@]5(O)[C@@H]4CC[C@]3(O)C2)[C@H](O)[C@H](O)[C@H]1O [CONVALLATOXIN] | 16 nM | 50 nM
